Results reported in EPA's CvTdb concentration-time database.

Columns and labels:
[1] = test system: Rat; experiment: concentration in plasma after dosing; settings: dosed: 2-Hydroxy-4-methoxybenzophenone, 500 mg/kg, oral, Female, F344
[2] = test system: Rat; experiment: concentration in plasma after dosing; settings: dosed: 2-Hydroxy-4-methoxybenzophenone, 100 mg/kg, oral, Female, F344
[3] = test system: Mouse; experiment: concentration in plasma after dosing; settings: dosed: 2-Hydroxy-4-methoxybenzophenone, B6C3F1
[4] = test system: Rat; experiment: concentration in plasma after dosing; settings: dosed: 2-Hydroxy-4-methoxybenzophenone, 100 mg/kg, oral, Male, F344
[5] = test system: Rat; experiment: concentration in plasma after dosing; settings: dosed: 2-Hydroxy-4-methoxybenzophenone, 500 mg/kg, oral, Female, F344; remark: listed apart in the source
[6] = test system: Rat; experiment: concentration in plasma after dosing; settings: dosed: Nitrite, 80 mg/kg, oral, Female, F344
[7] = test system: Rat; experiment: concentration in plasma after dosing; settings: dosed: Nitrite, 80 mg/kg, oral, Female, F344; remark: listed apart in the source
[8] = test system: Rat; experiment: concentration in plasma after dosing; settings: 0.5 h; dosed: Nitrite; 40 mg/kg; oral; Female; F344
[9] = test system: Rat; experiment: concentration in plasma after dosing; settings: 0.5 h; dosed: Nitrite; 20 mg/kg; iv; Male; F344
[10] = test system: Rat; experiment: concentration in plasma after dosing; settings: 0.5 h; dosed: Nitrite; 20 mg/kg; iv; Male; F344; remark: listed apart in the source
[11] = test system: Rat; experiment: concentration in plasma after dosing; settings: dosed: Nitrite, 20 mg/kg, iv, Male, F344
[12] = test system: Rat; experiment: concentration in plasma after dosing; settings: dosed: Nitrite, 20 mg/kg, iv, Male, F344; remark: listed apart in the source
[13] = test system: Rat; experiment: concentration in plasma after dosing; settings: dosed: Nitrite, 80 mg/kg, oral, Female, F344; remark: listed apart in the source
[14] = test system: Rat; experiment: concentration in plasma after dosing; settings: 10 min; dosed: Nitrite; 40 mg/kg; oral; Female; F344
[15] = test system: Rat; experiment: concentration in kidney after dosing; settings: 3 h; dosed: Fluorotelomer alcohol 8+2; 24 mg/kg; oral; Male; Harlan Sprague Dawley
[16] = test system: Rat; experiment: concentration in brain after dosing; settings: 6 h; dosed: Perfluorooctanoic acid; 80 mg/kg; oral; Female; Harlan Sprague Dawley
[17] = test system: Rat; experiment: concentration in plasma after dosing; settings: dosed: 678-39-7, 12 mg/kg, iv, Male, F344
[18] = test system: Rat; experiment: concentration in kidney after dosing; settings: 1 h; dosed: Fluorotelomer alcohol 8+2; 80 mg/kg; oral; Female; Harlan Sprague Dawley
[19] = test system: Rat; experiment: concentration in kidney after dosing; settings: 12 h; dosed: Perfluorooctanoic acid; 80 mg/kg; oral; Female; Harlan Sprague Dawley
[20] = test system: Rat; experiment: concentration in plasma after dosing; settings: 3 h; dosed: Fluorotelomer alcohol 8+2; 12 mg/kg; oral; Male; Harlan Sprague Dawley
[21] = test system: Rat; experiment: concentration in kidney after dosing; settings: 1 h; dosed: Fluorotelomer alcohol 8+2; 24 mg/kg; oral; Male; Harlan Sprague Dawley
[22] = test system: Rat; experiment: concentration in plasma after dosing; settings: dosed: Potassium Perfluorobutane Sulfonate, 4 mg/kg, oral, Male, Harlan Sprague Dawley
[23] = test system: Rat; experiment: concentration in kidney after dosing; settings: 6 h; dosed: Potassium Perfluorobutane Sulfonate; 20 mg/kg; oral; Female; Harlan Sprague Dawley
[24] = test system: Rat; experiment: concentration in kidney after dosing; settings: 0.5 h; dosed: Potassium Perfluorobutane Sulfonate; 20 mg/kg; oral; Male; Harlan Sprague Dawley
[25] = test system: Rat; experiment: concentration in liver after dosing; settings: 6 h; dosed: Potassium Perfluorobutane Sulfonate; 20 mg/kg; oral; Female; Harlan Sprague Dawley
[26] = test system: Rat; experiment: concentration in plasma after dosing; settings: dosed: Potassium Perfluorobutane Sulfonate, 4 mg/kg, oral, Male, Harlan Sprague Dawley; remark: listed apart in the source
[27] = test system: Rat; experiment: concentration in plasma after dosing; settings: dosed: Potassium Perfluorobutane Sulfonate, 4 mg/kg, oral, Male, Harlan Sprague Dawley; remark: listed apart in the source
[28] = test system: Rat; experiment: concentration in liver after dosing; settings: 12 h; dosed: Potassium Perfluorobutane Sulfonate; 20 mg/kg; oral; Male; Harlan Sprague Dawley
[29] = test system: Rat; experiment: concentration in kidney after dosing; settings: 3 h; dosed: Potassium Perfluorobutane Sulfonate; 20 mg/kg; oral; Female; Harlan Sprague Dawley
[30] = test system: rat; experiment: concentration in plasma after dosing; settings: dosed: benzo[a]pyrene, 100 ug/m^3, inhalation, duration: 4 hr, F344

COc1ccc(C(=O)c2ccccc2)c(O)c1 [2-Hydroxy-4-methoxybenzophenone]
concentration in plasma [ng/mL]
Settings | [1] | [2] | [4] | [5]
3 h | – | 7.19 | 21.2 | –
10 h | 27.5 | – | – | 31.5
10 min | 52.4 | 38.2 | 17.3 | 935

concentration in plasma [ng/mL], [3]
Settings | 0.25 h | 2 h | 2.5 min | 3 h | 10 min
50 mg/kg, iv, Female | 4570 | 259 | – | 193 | 9660
50 mg/kg, iv, Male | 5620 | 279 | – | 235 | 11500
100 mg/kg, oral, Female | 103 | 20.1 | 6.58 | 11.8 | 57.3
100 mg/kg, oral, Male | 62.2 | 36.5 | 13.4 | 19.3 | 41.5
250 mg/kg, oral, Female | 260 | 45.8 | 22 | 264 | 165
250 mg/kg, oral, Male | 519 | 54.8 | 15.7 | 41.9 | 69.5
500 mg/kg, oral, Female | 2950 | 11500 | – | – | 526
500 mg/kg, oral, Male | 238 | 73.1 | – | – | 176

O=N[O-] [Nitrite]
Settings | concentration in plasma [ng/mL]
[6], 6 h | 1800
[6], 10 min | 24800
[7], 1 h | 8100
[7], 2 h | 6800
[11], 0.75 h | 2300
[11], 2 min | 21300
[12], 0.75 h | 3400
[12], 2 min | 14300
[13], 5 min | 6900
[13], 8 h | 1800

Settings | concentration in plasma [ng/mL]
[8] | 11600
[9] | 3700
[10] | 8100
[14] | 8500

O=C(O)C(F)(F)C(F)(F)C(F)(F)C(F)(F)C(F)(F)C(F)(F)C(F)(F)F [Perfluorooctanoic acid]
Settings | concentration in brain [ng/g] | concentration in kidney [ng/g] | concentration in plasma [ng/mL]
[15] | – | 272 | –
[16] | 3290 | – | –
[18] | – | 568 | –
[19] | – | 67800 | –
[20] | – | – | 392
[21] | – | 175 | –

[17]
Settings | concentration in plasma [ng/mL]
0.5 h | 235
9 h | 438

O=S(=O)([O-])C(F)(F)C(F)(F)C(F)(F)C(F)(F)F.[K+] [Potassium Perfluorobutane Sulfonate]
concentration in plasma [ng/mL]
Settings | 0.25 h | 1 h | 6 h | 24 h
[22] | – | 14800 | – | 603
[26] | 3580 | – | 11600 | –
[27] | 3220 | – | 9970 | –

Settings | concentration in kidney [ng/g] | concentration in liver [ng/g]
[23] | 587 | –
[24] | 9690 | –
[25] | – | 2620
[28] | – | 10100
[29] | 18600 | –

c1ccc2c(c1)cc1ccc3cccc4ccc2c1c34 [benzo[a]pyrene]
concentration in plasma [ng/mL], [30]
Settings | 0.05 h | 1 h | 2 h | 4 h
female | 10 | 23 | 11 | 1.07
male | 14.9 | 18 | 12 | 2
